Experimental data taken from publication PMC10454726 (International Journal of Molecular Sciences, 2023).

Tests used:
[1] = biological target: α-glucosidase from Rominococcus obeum (Blautia obeum, UniProt A5ZY13); assay: Enzymatic kinetics of α-glucosidase inhibition (pNPG substrate); format: biochemical
Procedure: The kinetic studies for PTP1B and α-glucosidase were carried out under the same conditions described in the references.

[2] = tested on: female Wistar rats; assay: Acute oral toxicity (OECD guideline 425); format: in vivo; conditions: for toxic effects at the macroscopic level (necropsy images): 175, 550, and 2000 mg/kg; for AOT (acute oral toxicity): female Wistar rats
Procedure: (§1) They were kept in standard polypropylene boxes under controlled temperature (24 ± 4 °C) on a 12 h light/dark cycle and provided conventional food (formula 5001, Rat Chow) and purified water ad libitum. […] At the end of the experiment, the animals were taken to the humanitarian endpoint by the intraperitoneal (ip) administration of 75 mg/kg of sodium pentobarbital to perform a necropsy in the bioterium of FESC, UNAM. During the necropsy, blood serum was extracted to quantify glucose, triacylglycerides, cholesterol, and insulin. The study was conducted based on the guidelines of the Declaration of Helsinki and approved by the Institutional Review Board: Internal Committee for the Care and Use of Experimentation Animals (CICUAE, according to the initials in Spanish, C23_02 on March 2023) of the FESC UNAM (Mexico). It complies with the Mexican norm for this matter (NOM-062-ZOO-1999, Technical Specifications for the Production, Care, and Use of Laboratory Animals, SAGARPA), as well as the Guide for the Care and Use of Laboratory Animals of the National Research Council and National Institutes of Health (NIH Publications No. 8023, revised 1978).
The female Wistar rats (n = 3) were used to obtain the AOT based on the procedures of Guide Number 425 of the Organization for Economic Cooperation and Development (OECD). The rats were closely monitored for 48 h after receiving oral doses of FC-114 or FC-122. Rat 1 received 175 mg/kg, rat 2 received 550 mg/kg, and rat 3 received 2000 mg/kg. They were then observed for 14 days until a necropsy to check for any toxic effects.

[3] = tested on: streptozotocin-induced diabetic rats; assay: Oral glucose tolerance test in streptozotocin-induced diabetic rats; format: in vivo, Wistar rat; parameters: AUC of the OGTT: unit not given here
Procedure: (§2) After a week of acclimation, 35 male Wistar rats were given a single intraperitoneal dose of STZ (Sigma Chemical Co. Toluca, Estado de México, Mexico) at a dosage of 45 mg/kg of body weight, after fasting for 12 h overnight with free access to water. To prevent initial drug-induced hypoglycemia mortality, these animals were given a 10% sucrose solution 24 h after administration. STZ was dissolved in 0.1 M of sodium citrate buffer (pH 4.5) and administered in a final volume of 5 mL/kg. A week after STZ injection, diabetes in streptozotocin rats was confirmed by measuring fasting blood glucose (by glucose oxidase method). Animals with a blood glucose (tail vein) above 126 mg/dL were considered diabetic and used for the experiment to create groups 2, 3, 4, 5, 6, and 7 [1, 13]. Blood glucose levels were measured using a glucometer (Accu-Chek Active, Roche, Mannheim, Germany) and reactive strips (Accu-Chek Active Glucose test strips, Roche). The presence of hyperglycemia and insulin level confirmed a model very similar to T2D in humans. For the pharmacological study, the final number of animals was 35 male rats, with 3 rats being sacrificed during the treatment stage. One was administered with FC-114 and two with acarbose. The first rat was damaged during oral glucose administration in the OGTT at week 5, and the other rats had gastrointestinal complications in week 7.
(§3) The diabetic animals in group 2 (untreated) were given 4% v/v aqueous EtOH solution (vehicle of treatments) in a volume of 6.5 mL/kg body weight. The other groups (3–7) received different treatments for 14 days (weeks 5 to 7). […] All of the treatments were at equimolar doses of PIO and adjusted to the weekly weight of each rat. […] The commercial PIO tablet (30 mg) was crushed in 7.5 mL of vehicle and given to each animal in 4.0 mg/mL of suspension. The FC-114 and FC-122 suspensions were created at 6.2 and 6.0 mg/mL, respectively. The commercial acarbose tablet (50 mg) was crushed in 7.5 mL of the vehicle and given to each animal in a suspension of 6.6 mg/mL. Each suspension was used within 2 days of its preparation, and the administration volume was near to 2.5 mL for each rat.
The OGTT was carried out in weeks 3, 4, 5, 6, and 7. Prior to the OGTT, all animal groups fasted overnight for eight hours with free access to water. Each rat was weighed and then received a 2 g/kg glucose overload orally and blood samples were taken from the tail vein [13, 97]. Glucose levels were measured using a glucometer (Accu-Chek Active, Roche, Mannheim, Germany) at 0, 30, 60, 90, 120, and 180 min after glucose administration. The AUC of the OGTT was calculated using the blood glucose concentration over time and the GraphPad Prism 8.0.1 software package (GraphPad Software; Science Inc., San Diego, CA, USA) was used to compare the effectiveness of the treatments.

[4] = tested on: streptozotocin-induced diabetic rats; assay: Animal weight, food and water consumption in streptozotocin-induced diabetic rats; format: in vivo, Wistar rat
Procedure: as §1, with “Six female (three for each compound: FC-114 and FC-122) (220 ± 10 g, for the acute toxicity assay) and forty male (215 ± 20 g, for the pharmacologic study) albino Wistar rats were acquired from the Isolation and Animal Facility Unit, Facultad de Estudios Superiores Cuautitlán (FESC), Universidad Nacional Autónoma de México (UNAM). They” for “They”
as §2, §3

[5] = tested on: streptozotocin-induced diabetic rats; assay: Weekly fasting glucose in streptozotocin-induced diabetic rats; format: in vivo, Wistar rat; conditions: after 7 and 14 days of treatment (weeks 6 and 7)
Procedure: as §2, §3

[6] = Week 5 (day 1 of treatment), oral, glibenclamide 0.6, FC-114 51.3, FC-122 49.1, PIO 30, acarbose 54.3 mg/kg/day
[7] = Week 6 (day 7 of treatment), same doses
[8] = Week 7 (day 14 of treatment), same doses
[9] = after 7 days of treatment (weeks 5 to 6)

α-glucosidase from Rominococcus obeum, sequence (A5ZY13 entry or part of it): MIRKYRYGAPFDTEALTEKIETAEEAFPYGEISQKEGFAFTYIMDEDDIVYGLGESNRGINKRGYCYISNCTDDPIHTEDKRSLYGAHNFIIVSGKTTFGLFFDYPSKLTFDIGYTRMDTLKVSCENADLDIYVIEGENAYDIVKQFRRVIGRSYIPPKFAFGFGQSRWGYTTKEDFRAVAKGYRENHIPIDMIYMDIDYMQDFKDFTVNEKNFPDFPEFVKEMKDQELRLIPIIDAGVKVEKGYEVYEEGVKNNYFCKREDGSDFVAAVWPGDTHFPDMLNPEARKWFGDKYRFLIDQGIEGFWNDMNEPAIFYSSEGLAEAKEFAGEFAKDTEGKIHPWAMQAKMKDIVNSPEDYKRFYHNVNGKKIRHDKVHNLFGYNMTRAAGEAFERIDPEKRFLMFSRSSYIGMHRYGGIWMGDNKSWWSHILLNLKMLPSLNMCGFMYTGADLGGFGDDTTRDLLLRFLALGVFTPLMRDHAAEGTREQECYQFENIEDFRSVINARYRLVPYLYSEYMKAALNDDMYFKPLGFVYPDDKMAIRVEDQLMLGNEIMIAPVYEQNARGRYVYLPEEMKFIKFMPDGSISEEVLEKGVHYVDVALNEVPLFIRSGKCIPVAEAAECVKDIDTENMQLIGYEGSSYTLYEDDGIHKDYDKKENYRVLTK

SMILES	toxic effects at the macroscopic level (necropsy images) [2]	Toxic Effects ([2]; dose 175 mg/kg oral)	Weight Gain for 2 Weeks ([2]; dose 175 mg/kg oral)	Toxic Effects ([2]; dose 550 mg/kg oral)	Weight Gain for 2 Weeks ([2]; dose 550 mg/kg oral)	Toxic Effects ([2]; dose 2000 mg/kg oral)	Weight Gain for 2 Weeks ([2]; dose 2000 mg/kg oral)	AOT (acute oral toxicity) [2]	AUC of the OGTT [3, 6]	AUC of the OGTT [3, 7]	AUC of the OGTT [3, 8]	food intake [4, 9]	fasting glucose levels [5]	also measured
Cc1ccc(-n2ncc3c2C(C)(C)[C@@H]2CC[C@]4(C)[C@H](C(=O)C=C5[C@@H]6C[C@@](C)(C(=O)O)CC[C@]6(C)CC[C@]54C)[C@@]2(C)C3)cc1 [FC-122]	No toxic effects were observed	None	23.5 g	None	25.2 g	None	26.4 g	higher than 2000 mg/kg	58,941	57,003	53,076	reduced food intake to near-normal levels	halt the continuous increase of glucose levels	Inhibition type (α-glucosidase) ([1]; Lineweaver-Burk plots): linear-mixed type; Ki ([1]; substrate pNPG, Lineweaver-Burk): 5.2 µM; fold better potency than acarbose (Ki) ([1]; vs acarbose): ~ 5 fold; glucose blood levels in OGTT compared to untreated animals ([3]; after 14 days of administration, ANOVA/Bonferroni): ranked third; water consumption ([4]; after 14 days of administration): decreased water consumption compared to acarbose and FC-114
CC1(C)c2[nH]c3ccc(C(F)(F)F)cc3c2C[C@]2(C)[C@H]3C(=O)C=C4[C@@H]5C[C@@](C)(C(=O)O)CC[C@]5(C)CC[C@@]4(C)[C@]3(C)CC[C@@H]12 [FC-114]	No toxic effects were observed	None	22.8 g	None	23.4 g	None	21.5 g	higher than 2000 mg/kg	53,895	62,944	57,131	maintained their increased food consumption	halt the continuous increase of glucose levels	α-glucosidase inhibitory activity ([1]; range of concentrations tested): not active; animal weight compared to the untreated group (T2D) ([4]; 14 days of treatment, weeks 5 to 7): difference in weight; food intake ([4]; after 14 days of treatment (weeks 6 to 7)): tended to decrease toward normal levels
